{"source": "patent US9622988B2", "about": "“Small molecule xanthine oxidase inhibitors and methods of use” (Baylor College of Medicine, priority 2012, dated 2017)", "key": {"[1]": {"test": "Peroxynitrite scavenging assay", "conditions": "20 μM (FIG. 7C)", "description": "Peroxynitrite Scavenging Assay—Peroxynitrite (ONOO^−) was generated by mixing 5 mL acidic solution (0.6 M HCl) of H2O2 (0.7 M) and 5 mL of 0.6 M KNO2 in an ice bath for 1 second and the reaction was quenched with 5 mL of ice-cold 1.2 M NaOH. Residual H2O2 was removed using granular MnO2 prewashed with 1.2 M NaOH and the reaction mixture was then left overnight at −20° C. Concentrations of ONOO^− were determined before each experiment at 302 nm using a molar extinction coefficient of 1,670 M^−1 cm^−1. The final concentrations of reagents used in the assay are as follows: 25 μM ONOO^−, 10 μM DTPA, 5 μM DHR 123, 0.1 M phosphate buffer, pH 7.4. The ONOO^− scavenging assay was performed by monitoring the oxidation of dihydrorhodamine (DHR 123) by ONOO^− spectrophotometrically at 500 nm."}, "[2]": {"target": "Xanthine oxidase from bovine milk (Bos taurus, UniProt P80457)", "sequence (P80457 whole entry)": "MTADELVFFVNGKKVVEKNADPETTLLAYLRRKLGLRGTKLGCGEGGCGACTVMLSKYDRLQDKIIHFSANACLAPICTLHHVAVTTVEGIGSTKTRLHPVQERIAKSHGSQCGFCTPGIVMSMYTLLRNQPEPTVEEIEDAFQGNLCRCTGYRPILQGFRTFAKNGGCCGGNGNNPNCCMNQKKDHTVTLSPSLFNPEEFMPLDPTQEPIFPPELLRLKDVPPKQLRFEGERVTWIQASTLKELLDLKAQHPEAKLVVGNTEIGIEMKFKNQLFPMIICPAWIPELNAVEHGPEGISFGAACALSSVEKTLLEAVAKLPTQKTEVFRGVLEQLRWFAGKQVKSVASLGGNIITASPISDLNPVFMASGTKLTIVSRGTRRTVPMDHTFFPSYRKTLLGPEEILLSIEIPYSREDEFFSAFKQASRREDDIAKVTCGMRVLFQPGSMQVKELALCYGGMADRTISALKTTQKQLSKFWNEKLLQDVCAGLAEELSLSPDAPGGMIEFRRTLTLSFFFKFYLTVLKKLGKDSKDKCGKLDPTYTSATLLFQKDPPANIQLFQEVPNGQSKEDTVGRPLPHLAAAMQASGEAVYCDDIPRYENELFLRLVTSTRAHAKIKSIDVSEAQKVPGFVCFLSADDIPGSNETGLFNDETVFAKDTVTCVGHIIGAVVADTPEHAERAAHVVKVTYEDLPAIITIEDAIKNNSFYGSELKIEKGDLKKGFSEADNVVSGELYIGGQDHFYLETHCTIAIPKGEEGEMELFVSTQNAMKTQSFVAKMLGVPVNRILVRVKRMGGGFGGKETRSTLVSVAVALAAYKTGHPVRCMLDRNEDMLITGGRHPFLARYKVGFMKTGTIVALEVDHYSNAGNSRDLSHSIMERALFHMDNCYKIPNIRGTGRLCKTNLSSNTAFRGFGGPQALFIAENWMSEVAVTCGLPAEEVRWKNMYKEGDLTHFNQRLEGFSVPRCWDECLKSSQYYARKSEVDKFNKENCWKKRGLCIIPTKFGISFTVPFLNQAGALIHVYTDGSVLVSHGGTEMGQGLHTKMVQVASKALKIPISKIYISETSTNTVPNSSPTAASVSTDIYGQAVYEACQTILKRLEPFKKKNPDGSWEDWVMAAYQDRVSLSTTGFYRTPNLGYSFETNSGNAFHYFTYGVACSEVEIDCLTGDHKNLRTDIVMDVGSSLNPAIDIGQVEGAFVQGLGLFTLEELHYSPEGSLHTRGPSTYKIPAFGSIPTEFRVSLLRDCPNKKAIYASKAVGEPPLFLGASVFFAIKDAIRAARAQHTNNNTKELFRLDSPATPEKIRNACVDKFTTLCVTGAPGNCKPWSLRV", "conditions": "for inhibition of XO: each compound at 20 μM (FIG. 2); for time course of inhibition of XO activity: 20 nM XO added to 50 μM xanthine and 6.67 μM inhibitor (FIG. 3)"}, "[3]": {"test": "Superoxide scavenging assay (xanthine-xanthine oxidase system, NBT)", "conditions": "20 μM (FIG. 7D)", "description": "Superoxide Scavenging Assay—Superoxide (O2^−.) scavenging activity was assayed in the xanthine-xanthine oxidase system and determined by the inhibition of the reduction of nitro blue tetrazolium (NBT) to form blue formazan which has an absorption at 560 nm. The final concentrations of reagents used in the assay are as follows: 16.8 mU xanthine oxidase, 25 μM xanthine, 50 μM NBT, and 0.1 M phosphate buffer (pH 8.5). […] The abilities of polyphenols to scavenge O2^−. were compared with that of GSH."}, "[4]": {"tested_on": "allantoxanamide induced hyperuricemic mice", "test": "Hypouricemic effect in allantoxanamide induced hyperuricemic mice", "format": "in vivo, C57BL/6 mice", "conditions": "100 mg/kg oral before 200 mg/kg allantoxanamide i.p., up to 4 hours (FIG. 13)", "description": "A hyperuricemia mouse model was used. Allantoxanamide, a potent uricase inhibitor, was used to induce hyperuricemia in mice in this study. […] The mice were subsequently intraperitoneally injected with allantoxanamide at 200 mg/kg in 0.5% CMC-Na in a volume of 0.1 ml/10 g mouse body weight just after the tested drug oral administration to increase the serum uric acid level. […] The negative control mice were administered PEG400 only followed by i.p. allantoxanamide. The normal group mice were administered PEG400 only followed by i.p. CMC-Na only. Food and water were withheld overnight prior to the study. Whole blood samples were collected from mice through orbital vein bleeding at the end of the study. The mice were anaesthetized with diethyl ether inside a chamber. The blood was allowed to clot for 1 h at room temperature and then centrifuged at 2350×g for 4 min to obtain the serum. The serum was kept on ice and assayed immediately. Serum uric acid was determined with the phosphotungstate method, as known to those of skill in the art."}, "[5]": {"test": "Antioxidant activity of polyphenols (summary)", "conditions": "FIG. 7"}, "XO": {"target": "T1, XO (Bos taurus, UniProt P80457)", "T1 construct": "Xanthine oxidase from bovine milk; purchased Sigma Chemical Co. (St. Louis, Mo.); host or cells: bovine milk (natural source)", "T1 sequence (P80457 whole entry)": "as above", "test": "Conversion of DHNB to products by XO", "format": "biochemical, bovine", "conditions": "room temperature"}}, "data": [{"compound": "O.O=Cc1cc(O)c(O)c(O)c1", "note": "[THB-CHO, 3,4,5-trihydroxybenzaldehyde hydrate]", "values": [{"measurement": "ONOO^− scavenging effect", "setting": "[1]", "value": "strong scavenging effect"}, {"measurement": "IC50 of XO activity inhibition", "setting": "[2]; 20 nM XO, 50 μM xanthine, phosphate buffer pH 7.4, 25° C.", "value": "too high to determine"}, {"measurement": "inhibition of XO", "setting": "[2]", "value": "inhibitory effects on XO"}, {"measurement": "superoxide scavenging effect", "setting": "[3]", "value": "strong scavenging effects on superoxide"}]}, {"compound": "COc1ccc(CO)cc1OC", "note": "[DMB-CH2OH, 3,4-dimethoxybenzyl alcohol, reference compound]", "values": [{"measurement": "inhibition of XO", "setting": "[2]", "value": "no effect on XO"}]}, {"compound": "COc1cc(C=O)ccc1O", "note": "[Vanillin, reference compound]", "values": [{"measurement": "inhibition of XO", "setting": "[2]", "value": "no inhibition on XO activity"}]}, {"compound": "O=Cc1cc(O)c(O)c([N+](=O)[O-])c1", "note": "[DHNB, 3,4-Dihydroxy-5-nitrobenzaldehyde]", "values": [{"measurement": "ONOO^− scavenging effect", "setting": "[1]", "value": "strong scavenging effect"}, {"measurement": "time course of inhibition of XO activity", "setting": "[2]", "value": "time-dependent inhibition"}, {"measurement": "XO inhibition after treatment with reducing agents", "setting": "[2]; 20 μM DHNB, then GSH, DTT or 2-ME 20 mM (FIG. 5)", "value": "did not abolish the inhibition"}, {"measurement": "initial rates with increasing xanthine concentrations (Dixon plot)", "setting": "[2]; DHNB concentration fixed, 1 min pre-incubation (FIG. 1B)", "value": "did not change with increasing xanthine concentrations"}, {"measurement": "inhibition of XO", "setting": "[2]", "value": "inhibitory effects on XO"}, {"measurement": "serum urate levels (hypouricemic effect)", "setting": "[4]", "value": "significantly lowered in 2 hours and maintained at a level just slightly higher than the normal level in 4 hours"}, {"measurement": "histology analysis for the liver, kidney, and heart vs control mice", "setting": "C57BL/6 mice; mouse, in vivo", "value": "did not show any difference"}]}, {"compound": "Oc1ncnc2[nH]ncc12", "note": "[allopurinol, reference compound]", "values": [{"measurement": "time course of inhibition of XO activity", "setting": "[2]", "value": "time-dependent inhibition"}, {"measurement": "serum urate levels (hypouricemic effect)", "setting": "[4]", "value": "significantly lowered the serum urate level close to the normal level"}, {"measurement": "antioxidant activity (scavenging of DPPH, ONOO^−, HOCl, superoxide ion)", "setting": "[5]", "value": "does not possess the antioxidant properties"}, {"measurement": "pups died in two days", "setting": "C57BL/6 mice; 500 mg/kg, total 19 pups of surviving mice", "value": "eight"}]}, {"compound": "O=Cc1ccc(O)c(O)c1", "note": "[DHB-CHO, 3,4-dihydroxybenzaldehyde]", "values": [{"measurement": "ONOO^− scavenging effect", "setting": "[1]", "value": "strong scavenging effect"}, {"measurement": "inhibition of XO", "setting": "[2]", "value": "inhibitory effects on XO"}]}, {"compound": "O=C(O)c1ccc(O)c(O)c1", "note": "[DHB-COOH, 3,4-dihydroxybenzoic acid, reference compound]", "values": [{"measurement": "inhibition of XO", "setting": "[2]", "value": "no effect on XO"}]}, {"compound": "O=C(O)c1cc(O)c(O)c([N+](=O)[O-])c1", "note": "[3,4-dihydroxy-5-nitrobenzoic acid]", "values": [{"measurement": "inhibitory effect of the DHNB/XO product on XO", "setting": "XO", "value": "no inhibitory effect on XO"}]}, {"compound": "O=C(O)/C=C/c1ccc(O)c(O)c1", "note": "[caffeic acid, reference compound]", "values": [{"measurement": "ONOO^− scavenging effect", "setting": "[1]", "value": "strong scavenging effect"}, {"measurement": "inhibition of XO", "setting": "[2]", "value": "no effect on XO"}]}, {"compound": "O=C(O)c1cc(O)c(O)c(O)c1", "note": "[gallic acid, reference compound]", "values": [{"measurement": "ONOO^− scavenging effect", "setting": "[1]", "value": "strong scavenging effect"}, {"measurement": "inhibition of XO", "setting": "[2]", "value": "no effect on XO"}]}, {"compound": "O=Cc1cc(O)c(O)cc1[N+](=O)[O-]", "note": "[DH6NB, 3,4-Dihydroxy-6-nitrobenzaldehyde]", "values": [{"measurement": "ONOO^− scavenging effect", "setting": "[1]", "value": "strong scavenging effect"}, {"measurement": "inhibition of XO", "setting": "[2]", "value": "inhibitory effects on XO"}]}]}
